From patent US11667636B2, “Modulators of Mas-related G-protein receptor X2 and related products and methods” (Escient Pharmaceuticals, Inc., priority 2020, dated 2023)

Key:
Human LAD2 cells = test: Mast Cell Beta-Hexosaminidase Release Assay (Cortistatin-14 induced degranulation); type: cell-based; conditions: 500 nM Cortistatin-14, percent beta-hexosaminidase release, read-out: MRGPRX2 Antagonist Activity
Method: Human LAD2 cells (NIH) were maintained in an incubator at 37° C. with 5% CO2 and cultured in StemPro-34 serum-free media (Gibco 10639011) supplemented with 2 mM L-glutamine, 100 U/ml penicillin, […] streptomycin and 100 ng/ml SCF (Invitrogen PEP0860), at a concentration of 2-5×10^5 cells/mL, with hemidepletion every 1-2 weeks.
Cells were transferred to SCF-Free medium at 2.5×10^5 cells/mL and kept in an incubator overnight. On the day of the assay, cells were washed twice in Assay Buffer (final concentrations 10 mM HEPES, 137 mM NaCl, 5.6 mM D-glucose, 2.7 mM KCl, 1 mM MgCl, 1.8 mM CalCl2, 0.4 mM Na2HPO4.7H2O, 0.04% BSA, pH=7.4) and plated in a 96-well v-bottom plate at 20,000 cells per well in 80 μL Assay Buffer. Antagonist compounds solubilized at 10 mM in DMSO were diluted in Assay Buffer to 10× final desired concentrations as a 10-point curve (10 μM final top concentration with 1:3 serial dilutions) and 10 μL added per well. Plates were then incubated for 1 hour at 37° C. Agonists were diluted in Assay Buffer to 10× desired concentrations and 10 μL of the appropriate agonist added to each well. The final concentration of Cortistatin-14 (Tocris 3374) used in antagonist assays was 500 nM. Final concentrations of DMSO were kept consistent across the plate. Plates were then incubated in a warm air oven for 30 minutes at 37° C., followed by centrifugation at 4° C. for 5 minutes at 450×g. 50 μL supernatant from each well was then transferred to a 96-well flat bottom plate containing 100 μL substrate solution per well (3.5 mg/mL p-Nitrophenyl-N-acetyl-$-D-glucosaminide (Sigma 487052) in Citrate Buffer containing a final concentration of 40 mM Citric Acid, 20 mM Na2HPO4.7H2O, pH=4.5). To the cell pellets left in the remaining assay buffer, 150 μL 0.1% Triton-X-100 was then added to each well, resuspended by pipetting up and down, and 50 μL cell lysates transferred to a second 96-well flat bottom plate containing 100 μL substrate solution per well. Plates containing transferred supernatant and cell lysates were then incubated in a warm air oven for 90 minutes at 37° C. After incubation, 50 μL of 400 mM Glycine buffer (pH 10.7) was added into each well and the plate was read on a Molecular Devices SpectraMax iD5 plate reader (absorbance at 405 nm with reference filter at 620 nm). After background subtraction, the percentage degranulation (percent beta-hexosaminidase release) was calculated as 100×(supernatant values)/(supernatant+lysate values), followed by analysis using GraphPad Prism software to calculate an IC50 value for each compound.
The activity ranges are denoted as follows: “+++++” denotes antagonist activity <50 nM; “++++” denotes antagonist activity between 51 and 100 nM; “+++” denotes activity between 101 and 500 nM; “++” denotes activity between 501 and 1000 nM; and “+” denotes activity >1000 nM.

human MRGPRX2 = molecular target: T1, human MRGPRX2 (Homo sapiens, UniProt Q96LB1); test: MRGPRX2 Activity: IP-One HTRF antagonist assay in CHO cells stably expressing human MRGPRX2, versus Cortistatin-14; type: cell-based; conditions: versus 0.3 uM Cortistatin-14 agonist, IP-1 HTRF, read-out: MRGPR2 Antagonist Activity
T1 construct: expressed in transfected cells
T1 sequence (Q96LB1 1-330): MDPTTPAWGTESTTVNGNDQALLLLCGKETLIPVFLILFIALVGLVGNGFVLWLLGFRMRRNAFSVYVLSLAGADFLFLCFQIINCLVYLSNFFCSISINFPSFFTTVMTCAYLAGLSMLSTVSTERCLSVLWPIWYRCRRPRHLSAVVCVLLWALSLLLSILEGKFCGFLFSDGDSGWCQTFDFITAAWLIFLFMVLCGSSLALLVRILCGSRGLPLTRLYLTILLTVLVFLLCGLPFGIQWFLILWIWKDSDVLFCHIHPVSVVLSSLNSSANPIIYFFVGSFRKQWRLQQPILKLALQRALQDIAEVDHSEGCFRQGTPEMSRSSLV
Method: CHO cells stably transfected to express human MRGPRX2 were maintained in an incubator at 37° C. with 5% CO2 and grown in F12 (HAM) media with 10% fetal bovine serum (FBS), 1% Glutamax, 1% penicillin/streptomycin, 800 μg/mL Geneticin (G418), and 300 μg/mL Hygromycin B. Cells were plated in a 384-well assay plate at 20,000 cells per well in 12 μL of Opti-MEM and kept in an incubator overnight. On the day of the assay, compounds solubilized at 10 mM in DMSO were added as a 10-point curve (30 uM final top concentration with 1:3 serial dilutions) using a Tecan D300E digital dispenser. Agonists were diluted in assay buffer (final concentrations of 5.7 mM Tris-HCl, 43 mM NaCl, 50 mM LiCl, pH=8) and 2 μL of the agonist Cortistatin-14 (CPC Scientific, catalog CORT-002) are added to each well. Final concentrations of agonists were 0.3 μM Cortistatin-14. Final concentrations of DMSO were kept consistent across the plate. Plates were incubated in the dark for 1 hr at 37° C. and then for 1 hr at room temperature. IP-1 standards and HTRF detection reagents were added according to the IP-One-Gq Kit purchased from Cisbio (part number 62IPAPEJ) and incubated in the dark for 1 hr at room temperature. The plate was read on a Molecular Devices SpectraMax iD5 plate reader. The HTRF ratio was calculated from the raw data and graphed using GraphPad Prism to calculate an IC50 value for each compound.
The activity ranges are denoted as follows: “+++++” denotes antagonist activity <50 nM; “++++” denotes antagonist activity between 51 and 100 nM; “+++” denotes activity between 101 and 500 nM; “++” denotes activity between 501 and 1000 nM; and “+” denotes activity >1000 nM

Compound	IC50 (Human LAD2 cells)	IC50 (human MRGPRX2)
O=C(N[C@H]1CC[C@@H](Nc2cccc3nc(C(F)(F)F)cn23)CC1)c1cccc2cnsc12 [2-52]	< 50 nM	–
Cn1cc(C(=O)N[C@H]2CC[C@@H](Nc3cccc4nc(C(F)(F)F)cn34)CC2)c2ccccc21 [2-160]	< 50 nM	< 50 nM
O=C(N[C@H]1CC[C@@H](Nc2cccc3nc(C(F)F)cn23)CC1)c1ccccc1NCC(F)F [2-142]	< 50 nM	< 50 nM
O=C(N[C@H]1CC[C@@H](Nc2cccc3nc(C(F)F)cn23)CC1)c1ccccc1NCC(F)(F)F [2-143]	< 50 nM	< 50 nM
O=C(N[C@H]1CC[C@@H](Nc2cccc3nc(C(F)F)cn23)CC1)c1ccnc2[nH]ccc12 [2-24]	< 50 nM	< 50 nM
COc1ccc(C(=O)N[C@H]2CC[C@@H](Nc3cccc4nc(C(F)F)cn34)CC2)c(NCC(F)(F)F)c1 [2-28]	< 50 nM	< 50 nM
CS(=O)(=O)Nc1cccc(C(=O)N[C@H]2CC[C@@H](Nc3cccc4sc(C(F)(F)F)cc34)CC2)c1 [2-6]	< 50 nM	51 to 100 nM
O=C(N[C@H]1CC[C@@H](Nc2cccc3nc(C(F)(F)F)cn23)CC1)c1cn(C(F)F)nc1C(F)F [2-228]	< 50 nM	< 50 nM
O=C(N[C@H]1CC[C@@H](Nc2cccc3nc(C(F)(F)F)cn23)CC1)c1cccc(NCC(F)F)c1 [2-178]	< 50 nM	< 50 nM
O=C(N[C@H]1CC[C@@H](Nc2cccc3nc(C(F)F)cn23)CC1)c1ccc(NCC(F)F)cc1 [2-61]	< 50 nM	–
O=C(N[C@H]1CC[C@@H](Nc2cccc3sc(C(F)(F)F)cc23)CC1)c1ccc(F)cc1 [Example 1, 4-fluoro-N-((1s,4s)-4-((2-(trifluoromethyl)benzo[b]thiophen-4-yl)amino)cyclohexyl) benzamide]	< 50 nM	101 to 500 nM
COc1ccc(C(=O)N[C@H]2CC[C@@H](Nc3cccc4nc(C(F)(F)F)cn34)CC2)cc1 [1-1]	< 50 nM	< 50 nM
CNc1ccccc1C(=O)N[C@H]1CC[C@@H](Nc2cccc3nc(C(F)(F)F)cn23)CC1 [2-71]	< 50 nM	–
O=C(N[C@H]1CC[C@@H](Nc2cccc3nc(C(F)(F)F)cn23)CC1)c1cccc2cn[nH]c12 [2-10]	< 50 nM	< 50 nM
O=C(N[C@H]1CC[C@@H](Nc2cccc3nc(C(F)(F)F)cn23)CC1)c1cccc2c(F)n[nH]c12 [2-153]	< 50 nM	< 50 nM
O=C(N[C@H]1CC[C@@H](Nc2cccc3nc(C(F)F)cn23)CC1)c1ccccc1NCCF [2-222]	< 50 nM	–
Cn1cc(C(=O)N[C@H]2CC[C@@H](Nc3cccc4nc(C(F)(F)F)cn34)CC2)c(Cl)n1 [2-137]	< 50 nM	< 50 nM
